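Each compound was tested at five concentrations against cells in 96-well plates for 48 hours. GI50 = concentration required for 50% inhibition of growth. TGI is the concentration that stops growth completely.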
Columns and labels:
Assay in all cases: growth of human tumour cells (NCI), 48 h
[1] = tested on: EKVX NSCLC
[2] = tested on: MOLT-4 leukemia
[3] = tested on: MDA-MB-231 breast
[4] = tested on: SNB-75 CNS
[5] = tested on: HS 578T breast
[6] = tested on: IGROV1 ovarian
[7] = tested on: MCF7 breast
[8] = tested on: ACHN renal
[9] = tested on: SR leukemia
[10] = tested on: HCC-2998 colon
[11] = tested on: OVCAR-8 ovarian
[12] = tested on: NCI/ADR-RES ovarian
[13] = tested on: HCT-116 colon
[14] = tested on: SN12C renal
[15] = tested on: NCI-H460 lung
[16] = tested on: NCI-H522 lung
[17] = tested on: PC-3 prostate
[18] = tested on: SF-539 CNS
[19] = tested on: HOP-92 NSCLC
[20] = tested on: HT29 colon
[21] = tested on: BT-549 breast
[22] = tested on: COLO 205 colon
[23] = tested on: NCI-H23 lung
[24] = tested on: HCT-15 colon
[25] = tested on: SW-620 colon
[26] = tested on: 786-0 renal
[27] = tested on: SF-268 CNS
[28] = tested on: OVCAR-5 ovarian
[29] = tested on: SK-MEL-28 melanoma
[30] = tested on: SF-295 CNS
[31] = tested on: UACC-62 melanoma
[32] = tested on: HL-60(TB) leukemia
[33] = tested on: UACC-257 melanoma
[34] = tested on: T-47D breast
[35] = tested on: CCRF-CEM leukemia
[36] = tested on: LOX IMVI melanoma
[37] = tested on: KM12 colon
[38] = tested on: K-562 leukemia
[39] = tested on: RPMI-8226 leukemia
[40] = tested on: SK-OV-3 ovarian
[41] = tested on: OVCAR-3 ovarian
[42] = tested on: DU-145 prostate
[43] = tested on: SNB-19 CNS
[44] = tested on: HOP-62 NSCLC
[45] = tested on: OVCAR-4 ovarian
[46] = tested on: A498 renal
[47] = tested on: MDA-MB-435
[48] = tested on: M14 melanoma
[49] = tested on: SK-MEL-5 melanoma
[50] = tested on: SK-MEL-2 melanoma
[51] = tested on: RXF 393 renal
[52] = tested on: NCI-H226 lung
[53] = tested on: A549 NSCLC
[54] = tested on: UO-31 renal
[55] = tested on: TK-10 renal
[56] = tested on: CAKI-1 renal
[57] = tested on: MALME-3M melanoma
[58] = tested on: U251 CNS

C[C@@H](Oc1ccc(C(=O)NS(=O)(=O)C(C)(C)C)cc1C(F)(F)F)c1ccc(Oc2ccccc2)cn1
GI50 [1]: 4.35 µM | TGI [1]: 20.3 µM | GI50 [2]: 3.65 µM | TGI [2]: 24.9 µM | GI50 [3]: 3.6 µM | TGI [3]: 15.5 µM | GI50 [4]: 2040 nM | TGI [4]: 10.8 µM | GI50 [5]: 3.27 µM | TGI [5]: 17.9 µM | GI50 [6]: 2640 nM | TGI [6]: 13.7 µM | GI50 [7]: 2650 nM | TGI [7]: 13.6 µM | GI50 [8]: 3.59 µM | TGI [8]: 14.5 µM | GI50 [9]: 1290 nM | TGI [9]: 13.7 µM | GI50 [10]: 2760 nM | TGI [10]: 11.3 µM | GI50 [11]: 3.27 µM | TGI [11]: 12.4 µM | GI50 [12]: 3.7 µM | TGI [12]: 17.2 µM | GI50 [13]: 2480 nM | TGI [13]: 11.2 µM | GI50 [14]: 4.58 µM | TGI [14]: 18.6 µM | GI50 [15]: 3.7 µM | TGI [15]: 13.3 µM | GI50 [16]: 1300 nM | TGI [16]: 5.63 µM | GI50 [17]: 3.1 µM | TGI [17]: 16.1 µM | GI50 [18]: 2100 nM | TGI [18]: 5.62 µM | GI50 [19]: 1780 nM | TGI [19]: 11.7 µM | GI50 [20]: 3.1 µM | TGI [20]: 8.38 µM | GI50 [21]: 2060 nM | TGI [21]: 5.83 µM | GI50 [22]: 2670 nM | TGI [22]: 7.95 µM | GI50 [23]: 5.14 µM | TGI [23]: 23.3 µM | GI50 [24]: 2530 nM | TGI [24]: 10.5 µM | GI50 [25]: 3.18 µM | TGI [25]: 14.6 µM | GI50 [26]: 3.01 µM | TGI [26]: 13 µM | GI50 [27]: 3.54 µM | TGI [27]: 17.8 µM | GI50 [28]: 3.46 µM | TGI [28]: 14 µM | GI50 [29]: 6.63 µM | TGI [29]: 21.8 µM | GI50 [30]: 2210 nM | TGI [30]: 6.89 µM | GI50 [31]: 3.09 µM | TGI [31]: 19.8 µM | GI50 [32]: 2400 nM | TGI [32]: 8.23 µM | GI50 [33]: 11.9 µM | TGI [33]: 32.7 µM | GI50 [34]: 4.46 µM | TGI [34]: 32.5 µM | GI50 [35]: 2520 nM | TGI [35]: 16.4 µM | GI50 [36]: 2800 nM | TGI [36]: 10.8 µM | GI50 [37]: 2280 nM | TGI [37]: 11.4 µM | GI50 [38]: 1250 nM | TGI [38]: 21 µM | GI50 [39]: 2950 nM | TGI [39]: 9.87 µM | GI50 [40]: 3.73 µM | TGI [40]: 15.2 µM | GI50 [41]: 1880 nM | TGI [41]: 5.47 µM | GI50 [42]: 3.82 µM | TGI [42]: 14.3 µM | GI50 [43]: 3.02 µM | TGI [43]: 14 µM | GI50 [44]: 3.61 µM | TGI [44]: 17.7 µM | GI50 [45]: 4.85 µM | TGI [45]: 19.7 µM | GI50 [46]: 1910 nM | TGI [46]: 6.74 µM | GI50 [47]: 585 nM | TGI [47]: 2090 nM | GI50 [48]: 1910 nM | TGI [48]: 7.57 µM | GI50 [49]: 1680 nM | TGI [49]: 4.75 µM | GI50 [50]: 6.56 µM | TGI [50]: 23.3 µM | GI50 [51]: 2250 nM | TGI [51]: 8.95 µM | GI50 [52]: 2760 nM | TGI [52]: 8.5 µM | GI50 [53]: 5.31 µM | TGI [53]: 20.5 µM | GI50 [54]: 4.78 µM | TGI [54]: 19.9 µM | GI50 [55]: 3.05 µM | TGI [55]: 14.7 µM | GI50 [56]: 2700 nM | TGI [56]: 17.7 µM | GI50 [57]: 10.8 µM | TGI [57]: 26.7 µM | GI50 [58]: 3.18 µM | TGI [58]: 13.6 µM
